Among the test systems are 786-0; SK-MEL-5; HT-29; U-251; OVCAR-5; CCRF-CEM; MCF7; HCT-116; K562; MDA-MB-435; KM12; MDA-N; Malme-3M; LOX IMVI; MDA-MB-231; SK-OV-3; SF-539; NCI-H226; SF-268.
Test in all cases: DTP human tumour cell line panel, 48 h

The GI50 is the concentration giving 50% growth inhibition.

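Protocol summary: plate cells (96-well), add compound at 5 concentrations, incubate 48 h, interpolate endpoints linearly. Abbreviation: GI50, concentration required for 50% inhibition of growth.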 The source made the active and inactive calls. Cut-off read from the data, not from the text of the source: active = GI50 up to about 1.1 µM and inactive = higher. Where only a bound is given, the exact number is not on record here.

`O=C(c1ccc2ccccc2c1)C1S(=O)(=O)OCCOS1(=O)=O`: the GI50 in the experiment on 786-0, with SK-MEL-5, with HT-29, with U-251, in the experiment with OVCAR-5 and in the experiment on CCRF-CEM was > 100 µM (inactive) in each case. The GI50 in the experiment on MCF7, with HCT-116, in the experiment on K562, with MDA-MB-435, in the experiment on KM12 and in the experiment on MDA-N was > 100 µM (inactive) each time. The GI50 in the experiment on Malme-3M and with LOX IMVI was > 100 µM (inactive) in each case.

Turning to `C=CCC(CC=O)(C(=O)OCC)C(=O)OCC`, the GI50 in the experiment with 786-0, with SK-MEL-5, in the experiment on HT-29, with U-251, in the experiment on OVCAR-5 and in the experiment on CCRF-CEM was > 100 µM (inactive) throughout. Also, the GI50 with MDA-MB-231, in the experiment with SK-OV-3, with SF-539, in the experiment with MCF7, in the experiment on NCI-H226 and in the experiment on HCT-116 was > 100 µM (inactive) each time. Moreover, the GI50 with K562, in the experiment on MDA-MB-435, in the experiment on KM12, in the experiment with MDA-N, with Malme-3M and with SF-268 was > 100 µM (inactive) each time. Further, the GI50 in the experiment on LOX IMVI is > 100 µM (inactive).

With `CN1CC[C@@H](c2c(O)cc(O)c3c(=O)cc(-c4ccccc4Cl)oc23)[C@@H](O)C1`, the GI50 is 0.0414 µM (active) with 786-0; 0.0248 µM (active) with SK-MEL-5; 0.0942 µM (active) in the experiment with HT-29; 0.0385 µM (active) in the experiment with U-251; 0.0384 µM (active) with OVCAR-5; 0.0468 µM (active) in the experiment on CCRF-CEM. The GI50 was 0.0394 µM (active) with MDA-MB-231; 0.608 µM (active) with SK-OV-3; 0.0343 µM (active) with SF-539; 0.0239 µM (active) in the experiment with MCF7; 0.0357 µM (active) in the experiment with NCI-H226; 0.02 µM (active) in the experiment on HCT-116. Also, the GI50 is 0.167 µM (active) with K562; 0.0332 µM (active) in the experiment with MDA-MB-435; 0.0303 µM (active) in the experiment on KM12; 0.124 µM (active) in the experiment with Malme-3M; 0.0348 µM (active) in the experiment with SF-268; 0.0191 µM (active) in the experiment on LOX IMVI.

Consider `Nc1ccc2c(c1)C(=O)N(OS(=O)(=O)c1ccccc1)C2=O`, for which the GI50 in the experiment with 786-0 is > 100 µM (inactive); with SK-MEL-5, > 100 µM (inactive); in the experiment with HT-29, > 100 µM (inactive); in the experiment with U-251, > 100 µM (inactive); in the experiment with OVCAR-5, > 100 µM (inactive); in the experiment on CCRF-CEM, 76.6 µM (inactive). The GI50 is > 100 µM (inactive) in the experiment with SK-OV-3; > 100 µM (inactive) in the experiment with SF-539; > 100 µM (inactive) in the experiment on NCI-H226; > 100 µM (inactive) in the experiment on HCT-116; 86.1 µM (inactive) in the experiment with K562; > 100 µM (inactive) in the experiment with KM12. For the same compound, the GI50 with Malme-3M is 94.4 µM (inactive); in the experiment on SF-268, > 100 µM (inactive); with LOX IMVI it was 35.5 µM (inactive).

For the compound `O=C(/C=C/c1c(O)ccc2ccccc12)c1cccc(O)c1`, the GI50 in the experiment on 786-0 is > 100 µM (inactive); in the experiment with SK-MEL-5, 50.4 µM (inactive); in the experiment with HT-29 it was > 100 µM (inactive); in the experiment on U-251, > 91.6 µM (inactive); with OVCAR-5, > 100 µM (inactive); in the experiment on CCRF-CEM it was 30.1 µM (inactive). The GI50 is > 100 µM (inactive) in the experiment with SK-OV-3; > 100 µM (inactive) in the experiment with SF-539; > 100 µM (inactive) in the experiment on NCI-H226; > 100 µM (inactive) in the experiment on HCT-116; 44.3 µM (inactive) with K562; > 100 µM (inactive) with KM12. Besides, the GI50 in the experiment on Malme-3M is 59.8 µM (inactive); in the experiment with SF-268 it was > 100 µM (inactive); in the experiment on LOX IMVI it was 41.8 µM (inactive).

Turning to `O=C1OC(CS(=O)(=O)c2ccccc2)CC1O` (configuration not stated), the GI50 with 786-0, in the experiment on SK-MEL-5, with HT-29, with U-251, in the experiment with OVCAR-5 and in the experiment on CCRF-CEM was > 100 µM (inactive) in each case. In addition, the GI50 in the experiment with MDA-MB-231, in the experiment with SK-OV-3, in the experiment with SF-539, in the experiment with MCF7, in the experiment with NCI-H226 and in the experiment with HCT-116 was > 100 µM (inactive) throughout. The GI50 is > 100 µM (inactive) with K562; > 100 µM (inactive) in the experiment on MDA-MB-435; > 100 µM (inactive) in the experiment on KM12; > 100 µM (inactive) in the experiment on MDA-N; 22.6 µM (inactive) in the experiment on Malme-3M; > 100 µM (inactive) in the experiment on SF-268. In addition, the GI50 in the experiment with LOX IMVI is > 100 µM (inactive).

Turning to `CC(CO)(Nc1ccc([N+](=O)[O-])cc1[N+](=O)[O-])C(=O)O` (configuration not stated), the GI50 with 786-0 is 71 µM (inactive); with SK-MEL-5, 20.5 µM (inactive); in the experiment on HT-29, 16.7 µM (inactive); with U-251, 22.9 µM (inactive); in the experiment with OVCAR-5, 32.6 µM (inactive); in the experiment with MDA-MB-231, 79.8 µM (inactive). For the same compound, the GI50 with SF-539 is 34 µM (inactive); in the experiment on MCF7, 17.5 µM (inactive); in the experiment with NCI-H226 it was > 100 µM (inactive); with HCT-116, 63.2 µM (inactive); with K562, 19.1 µM (inactive); with MDA-MB-435, 21.6 µM (inactive). The GI50 in the experiment with KM12 was 43.5 µM (inactive); with Malme-3M, 18.7 µM (inactive); with SF-268, 19.3 µM (inactive); with LOX IMVI, 22.5 µM (inactive).

On to `C/C=C/C=C/C=C/C=C/C(=O)O`, for which the GI50 in the experiment with 786-0, with SK-MEL-5, in the experiment with HT-29, in the experiment on U-251, with OVCAR-5 and in the experiment with CCRF-CEM was > 100 µM (inactive) throughout. In addition, the GI50 in the experiment on SK-OV-3, in the experiment on SF-539, in the experiment with NCI-H226, with HCT-116, with K562 and with KM12 was > 100 µM (inactive) in each case. The GI50 in the experiment with Malme-3M, in the experiment with SF-268 and with LOX IMVI was > 100 µM (inactive) each time.

With `COc1cc(NCC(C#N)C#N)ccc1/N=N/c1ccc(Cl)cc1`, the GI50 with 786-0 is 20 µM (inactive); in the experiment with SK-MEL-5, 23 µM (inactive); with HT-29, 16.4 µM (inactive); with U-251, 18.5 µM (inactive); with OVCAR-5, 21.8 µM (inactive); in the experiment on CCRF-CEM, 18.9 µM (inactive). The GI50 is 29.9 µM (inactive) in the experiment with SK-OV-3; 25.1 µM (inactive) with SF-539; 30.5 µM (inactive) with NCI-H226; 23.7 µM (inactive) with HCT-116; 22.1 µM (inactive) in the experiment with K562; 14.2 µM (inactive) in the experiment with KM12. For the same compound, the values for the GI50 in the experiment with Malme-3M, in the experiment with SF-268 and with LOX IMVI were 35.2 µM (inactive), 38.5 µM (inactive) and 18.2 µM (inactive), respectively.

Regarding `Cc1ccc(NC(=O)CC/C(CC(=O)c2ccc(F)cc2)=N\NC(=O)C(=O)NN)cc1C`, the GI50 in the experiment on 786-0, with SK-MEL-5, in the experiment with HT-29, in the experiment with U-251, in the experiment with OVCAR-5 and in the experiment on CCRF-CEM was > 100 µM (inactive) each time. Also, the GI50 in the experiment on SK-OV-3, in the experiment on SF-539, with NCI-H226, with HCT-116, in the experiment with K562 and in the experiment with KM12 was > 100 µM (inactive) each time. The GI50 in the experiment on Malme-3M, in the experiment on SF-268 and in the experiment on LOX IMVI was > 100 µM (inactive) each time.

`O=C(NC(Cc1ccccc1)(Cc1ccc(O)cn1)C(=O)O)c1ccccc1` (configuration not stated): the GI50 in the experiment with 786-0 is > 100 µM (inactive); in the experiment with SK-MEL-5, > 100 µM (inactive); with HT-29 it was 42.2 µM (inactive); with U-251, > 100 µM (inactive); in the experiment with OVCAR-5 it was > 100 µM (inactive); in the experiment on CCRF-CEM it was 25.4 µM (inactive). Also, the GI50 was > 100 µM (inactive) in the experiment with MDA-MB-231; > 100 µM (inactive) in the experiment on SK-OV-3; > 100 µM (inactive) with SF-539; 83 µM (inactive) with NCI-H226; 58.9 µM (inactive) with HCT-116; > 100 µM (inactive) in the experiment with K562. Also, the GI50 with MDA-MB-435, in the experiment with KM12, in the experiment with MDA-N, in the experiment on Malme-3M, in the experiment on SF-268 and in the experiment on LOX IMVI was > 100 µM (inactive) throughout.

For the compound `Cc1cc2c3c(c1)S(=O)(=O)c1cc(Cl)ccc1N3CCC2`, the GI50 with 786-0 was 82.2 µM (inactive); with SK-MEL-5 it was > 100 µM (inactive); with HT-29, > 100 µM (inactive); in the experiment with OVCAR-5, > 100 µM (inactive); with CCRF-CEM, > 100 µM (inactive); with MDA-MB-231, 83.9 µM (inactive). Also, the GI50 was > 100 µM (inactive) with SK-OV-3; > 100 µM (inactive) with SF-539; > 100 µM (inactive) in the experiment with MCF7; > 100 µM (inactive) in the experiment with NCI-H226; > 100 µM (inactive) with HCT-116; 96.8 µM (inactive) with K562. Also, the GI50 in the experiment with MDA-MB-435, in the experiment with KM12, in the experiment on MDA-N, in the experiment with Malme-3M, in the experiment with SF-268 and in the experiment with LOX IMVI was > 100 µM (inactive) in each case.

Source of the values: ChEMBL document CHEMBL1201862, “PubChem BioAssay data set” (2004).
